Values quoted from earlier work, collected in US10645923B2, “Insect bait” (priority 2010, dated 2020).

Legend:
[1] = system: wasps; settings: fipronil versus sulfluramid; faster acting
[2] = system: Vespula spp.; settings: treated areas
[3] = system: wasps; settings: beef baited with fipronil, North West Patagonia (Argentina)
[4] = system: V. Germanica; settings: hydramethylnon 2%, after 72 hours

Compound | concentration factor lower than sulfluramid at equal toxicity [1] [times] | reduction of colony activity [2] [%] | reduction of wasp densities [3] | reduction of wasp populations [4] [%]
N#Cc1nn(-c2c(Cl)cc(C(F)(F)F)cc2Cl)c(N)c1[S+]([O-])C(F)(F)F (stereo not shown) [Fipronil] | 1000 | 99.7 | 80-100% | –
CC1(C)CNC(=NN=C(/C=C/c2ccc(C(F)(F)F)cc2)/C=C/c2ccc(C(F)(F)F)cc2)NC1 [hydramethylnon] | – | – | – | 54
